Source: patent US20230414771A1, “PREPARATION AND USE OF IMMUNOSTIMULATORY CONJUGATED COMPLEXES FOR TARGETED DELIVERY AND ACTIVATION” (YAFEI SHANGHAI BIOLOGY MEDICINE SCIENCE & TECHNOLOGY CO., …, priority 2020, published 2023)
Where a SMILES comes first, the peptide text is derived from it. The star is where a group is joined. Doxorubicin(3'-N) = COc1cccc2c1C(=O)c1c(O)c3c(c(O)c1C2=O)C[C@@](O)(C(=O)CO)C[C@@H]3O[C@H]1C[C@H](N*)[C@H](O)[C@H](C)O1; Hexanoyl(6-maleimido) = O=C1C=CC(=O)N1CCCCCC(=O)*

What was measured:
[1] = system: Human non-small cell lung cancer A549 tumor tissue homogenate; test: Activation in A549 tumor tissue homogenate; type: biochemical; details: A549 homogenate pH 6.0, 37° C., 1 mg/ml
Experimental: (§1) In the experiments of the present disclosure, 1 mg/ml of the sample compound was added to 100 μg of acidified tumor tissue homogenate (pH 6.0) at 37° C. The enzyme in the tumor tissue homogenate can cause the release of doxorubicin, and the reduction of compound and the increase of doxorubicin could be detected by HPLC to compare the activation efficiency of the drug in the tumor tissue.

[2] = system: Human colon cancer HT-29 tumor tissue homogenate; test: Activation in HT-29 tumor tissue homogenate; type: biochemical; details: HT-29 homogenate pH 6.0, 37° C., 1 mg/ml
Experimental: as §1

[3] = system: Human breast cancer MDA-MB435 tumor tissue homogenate; test: Activation in MDA-MB435 tumor tissue homogenate; type: biochemical; details: MDA-MB435 homogenate pH 6.0, 37° C., 1 mg/ml
Experimental: as §1

[4] = system: CT26 tumors orthotopically transplanted in liver; test: Orthotopic liver CT26 tumors, EMC-AANL-DOX, lenvatinib and PD-1; type: in vivo, BALB/c mice; details: 18 μmol/kg IV once weekly for 3 weeks
Experimental: 5×10^5 CT26 cells were injected subcutaneously into the back of nude mice. Randomization was performed when the tumor size reached 800-1000 mm^3. Tumor tissue was then extracted and cut into 100 mm^3 tumor tissue pieces and transplanted orthotopically into BALB/c mouse livers. After one week, when the orthotopically transplanted tumors grew, the mice with orthotopically transplanted tumors were randomized. • 2) Treatment course: 6 mice in one group were treated with drugs. The day of treatment was Day 1. According to the clinical application of EMC-AANL-DOX, the drug was administered intravenously (IV) once weekly for 3 weeks.

[5] = system: Human prostate cancer PC-3 tumor tissue homogenate; test: Activation in PC-3 tumor tissue homogenate; type: biochemical; details: PC-3 homogenate pH 6.0, 37° C., 1 mg/ml
Experimental: as §1

M2 macrophages = test: MTT cytotoxicity on M2 macrophages; type: cell-based, C57BL/6 mice; details: 48 hours, relative to C3
Experimental: The bilateral femur and tibiae of two C57BL/6 mice were taken out under aseptic conditions, and that metaphysis was cut off in a super-clean table. the marrow cavity was gently washed with serum-free MEM culture solution by a 5 mL sterile syringe for 4 times, and all cell suspensions were collect; Centrifuge at 1000 r/min for 10 min, discard the supernatant to obtain the cell precipitate, resuspend with an appropriate volume of serum-free MEM culture medium, repeatedly blow and homogenize, filter with a 40 uM filter screen, add 3 times the volume of erythrocyte lysate, and lyse on ice for 10 min; Centrifuge at 1000 r/min for 5 min, discard the supernatant to obtain the cell precipitate, wash with serum-free MEM culture medium for 2 times, and collect the cell precipitate; Resuspend the cells with MEM complete culture medium containing 10% FBS and 1% PS in volume fraction, and count the cells for subsequent differentiation; 100 uL, 20000 cells/well were inoculated into 96-well cell culture plate, 100 ng M-CSF was added into the culture medium for differentiation of M2 macrophages, and the cells were statically cultured at 37° C. in 5% C02 incubator, and induced to differentiate for 7 days, and the cell morphology was observed. […]
The cell survival rate and the 50% inhibitory concentration of the drug on the cells were calculated. […]

COc1cccc2c1C(=O)c1c(O)c3c(c(O)c1C2=O)C[C@@](O)(C(=O)CO)C[C@@H]3O[C@H]1C[C@H](NC(=O)[C@H](CC(C)C)NC(=O)[C@H](CC(N)=O)NC(=O)[C@H](C)NC(=O)[C@H](C)NC(=O)CCCCCN2C(=O)C=CC2=O)[C@H](O)[C@H](C)O1 [EMC-AANL-DOX] ({Hexanoyl(6-maleimido)}-AANL-{Doxorubicin(3'-N)})
Compound activation ratios (%) [1]: 46.4% | Compound activation ratios (%) [2]: 49.4% | Compound activation ratios (%) [3]: 42.3% | efficacy combined with lenvatinib (FIG. 11) [4]: superior to that of each monotherapy | efficacy combined with PD-1 (FIG. 11) ([4]; PD-1 5 mg/kg twice weekly): superior to that of lenvatinib combined with PD-1 | Compound activation ratios (%) [5]: 37.3%

COc1cccc2c1C(=O)c1c(O)c3c(c(O)c1C2=O)C[C@@](O)(C(=O)CO)C[C@@H]3O[C@H]1C[C@H](NC(=O)[C@H](CC(C)C)NC(=O)[C@H](CC(N)=O)NC(=O)[C@H](C)NC(=O)[C@H](C)NC(=O)CCOCCOCCNC(=O)CCN2C(=O)C=CC2=O)[C@H](O)[C@H](C)O1 [QHL-087-DOX]
cytotoxicity against M2 macrophages (FIG. 6) (M2 macrophages): significantly improved cytotoxicity against M2 macrophages
